Assay [1] has as its target T1, βarr2 recruitment to agonist-activated β2V2R (Homo sapiens, UniProt P32121).
T1 construct: host or cells: U2OS
Nature of the assay: DiscoveRx PathHunter β-arrestin recruitment assay in U2OS cells. The note with it: series of compound concentrations, 30 min pretreatment, isoproterenol dose-response. Type of assay: cell-based. As for the experimental part: β-arrestin recruitment to the agonist-activated receptor (02V2R) was measured using the DiscoveRx PathHunter β-arrestin assay (Ahn, S. et al. Allosteric “beta-blocker” isolated from a DNA-encoded small molecule library. Proc Natl Acad Sci U SA 114, 1708-1713, doi:10.1073/pnas.1620645114 (2017)). […] Agonist-stimulated recruitment of βarr2 to the receptor results in the formation of functionally active β-gal enzyme. Addition of substrate generates a chemiluminescence signal directly correlated to the extent of recruitment. U2OS cells co-expressing β2V2R and βarr2 were plated in 96-well clear-bottomed plates at a density of 25,000 cells per well (80 μL per well), 24 hours prior to compound treatment. On the day of experiment, cells were first treated with compound or vehicle for 30 min, followed by agonist (Iso) stimulation for 60 min at 37° C. Cells were then treated with PathHunter™ detection reagents for 90 min at 37° C., and luminescence signals were measured using a CLARIOstar microplate reader (BMG Labtech Inc., Cary, N.C.).
On the technique in general: Recruitment of arrestin is a read-out of receptor activation apart from second messengers.

For assay [2], the target named is βarr2 (Rattus norvegicus, UniProt P29067). The assay can be described thus: Negative-stain electron microscopy, 2D class averages of βarr2. Further details: final βarr2 (truncated βarr2 at 394) concentration of ˜1 mg/mL; made in house. The note with it: control βarr 97% monomeric. As for the experimental part:
To prepare for EM visualization of the architecture and structural organization of βarr2-Cmpd30 complexes, purified βarr2 (394) was diluted to 0.5 μM and incubated with 5 μM Cmpd-30 or vehicle (DMSO) in HN buffer (20 mM HEPES pH 7.4 and 150 mM NaCl) for 7 min at room temperature followed by dilution 10× into HN buffer containing 1 μM Cmpd-30, before negative staining. The positive control, βarr2 bound to IP6 sample was prepared similarly (5 μM and 250 μM, respectively) and was diluted 100× into HN buffer containing 10 μM IP6. Grids were prepared using conventional negative-staining protocols as described previously (Peisley, A. & Skiniotis, G. 2D Projection Analysis of GPCR Complexes by Negative Stain Electron Microscopy. Methods Mol Biol 1335, 29-38, doi:10.1007/978-1-4939-2914-6_3 (2015). Briefly, 3 μL of samples were applied onto a glow-discharged EM carbon-coated copper grid, adsorbed on the grid surface, blotted, stained, and air dried before imaging. EM grids were examined with a FEI Tecnai G2 Twin electron microscope and operated at an acceleration voltage of 120 kV. Images were recorded with an Eagle 2K CCD camera at a magnification of ×65,200 and a defocus value of ˜1.5 μm. Two-dimensional EM reference-free alignment and classification of particle projections were performed with the iterative stable alignment and clustering procedure (ISAC)(Yang, Z., et al., Iterative stable alignment and clustering of 2D transmission electron microscope images. Structure 20, 237-247, doi:10.1016/j.str.2011.12.007 (2012)). EM single particles were both automatically and manually selected using Boxer (part of the EMAN 2.1 software suite)(Tang, G. et EMAN2: an extensible image processing suite for electron microscopy. J Struct Biol 157, 38-46, doi:10.1016/j.jsb.2006.05.009 (2007)). A total of ˜250,000 0° particles projections were picked representing all the three βarr2 samples (with vehicle, Cmpd-30 or IP6) and windowed into 96×96-pixel images (with the RELION 2.1-beta-1 software package) and subjected to ISAC. […]

Chain of βarr2 (P29067 1-394): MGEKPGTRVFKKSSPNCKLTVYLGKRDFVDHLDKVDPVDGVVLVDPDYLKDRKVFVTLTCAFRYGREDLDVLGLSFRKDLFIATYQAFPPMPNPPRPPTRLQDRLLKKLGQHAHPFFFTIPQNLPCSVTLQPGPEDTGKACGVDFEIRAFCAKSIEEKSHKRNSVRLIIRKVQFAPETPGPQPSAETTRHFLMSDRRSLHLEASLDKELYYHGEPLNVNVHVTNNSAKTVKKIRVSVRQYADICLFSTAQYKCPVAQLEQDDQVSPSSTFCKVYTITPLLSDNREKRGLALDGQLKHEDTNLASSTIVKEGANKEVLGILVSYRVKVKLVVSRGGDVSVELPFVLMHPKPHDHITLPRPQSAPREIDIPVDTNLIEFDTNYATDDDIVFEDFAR
T1 sequence (P32121 whole entry): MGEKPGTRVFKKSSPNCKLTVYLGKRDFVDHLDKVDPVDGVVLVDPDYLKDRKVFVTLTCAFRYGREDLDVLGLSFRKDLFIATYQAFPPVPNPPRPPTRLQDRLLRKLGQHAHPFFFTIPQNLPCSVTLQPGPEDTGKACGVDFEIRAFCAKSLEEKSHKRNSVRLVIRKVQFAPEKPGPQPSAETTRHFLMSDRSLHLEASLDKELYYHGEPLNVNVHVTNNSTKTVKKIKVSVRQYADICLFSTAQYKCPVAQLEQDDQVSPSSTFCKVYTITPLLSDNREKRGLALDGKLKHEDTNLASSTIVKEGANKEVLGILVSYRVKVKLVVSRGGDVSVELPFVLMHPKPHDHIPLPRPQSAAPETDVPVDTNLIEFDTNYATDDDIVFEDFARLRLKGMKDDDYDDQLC

Turning to `COc1cc(Cc2nccc3cc(OC)c(OC)cc23)c(C(C)=O)cc1OC` [C29, 1-[2-[(6,7-dimethoxyisoquinolin-1-yl)methyl]-4,5-dimethoxyphenyl]ethanone], in assay [1], the “maximal agonist induced βarr recruitment response” value is on record as “significantly diminished”.

In the case of `O=P(O)(O)OC1C(OP(=O)(O)O)C(OP(=O)(O)O)C(OP(=O)(O)O)C(OP(=O)(O)O)C1OP(=O)(O)O` (centres unmarked) [IP6, inositol hexakisphosphate, reference compound], the “class averages represented as homo-oligomers (dimers/trimers)” value in assay [2] worked out at 100%.
